# Measurements reported in patent US6685968B1, “Boric acid sapstain control method” (priority 2003, dated 2004).
# Tested on: sapstain
# Settings: fresh cut hackberry lumber dipped in aqueous solutions (1,3,5,7 and 10% boric acid; DOT at the same level of boric oxide); stacked for air drying; examined after six months of seasoning and planing
# Method: Aqueous solutions containing 1,3,5,7, and 10% boric acid according to my preferred embodiment were prepared and used to treat fresh cut hackberry lumber by dipping. Aqueous disodium octaborate tetrahydrate solutions containing the same level of boric oxide were prepared and used in the same manner. This treated lumber, and untreated controls, was stacked in accordance with standard sawmill air drying practice. After six months of seasoning the lumber was planed, and examined for sapstain control.
row,SMILES,sapstain control
1,"O.O.O.O.O=BOB1OB(OB=O)OB2OB([O-])OB([O-])OB(O1)O2.[Na+].[Na+] [DOT, disodium octaborate tetrahydrate]",superior to the untreated controls
2,OB(O)O [boric acid],superior sapstain control compared to the DOT concentrations
